In ChEMBL document CHEMBL1201862, “PubChem BioAssay data set” (2004):
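Cells were grown in 96-well plates and exposed to each compound for 48 hours at five concentrations; endpoints were interpolated linearly between bracketing concentrations, or set to the highest concentration if not reached. Abbreviation: GI50, concentration required for 50% inhibition of growth.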 The source made the active and inactive calls. Rule as the data show it: active = GI50 up to about 1.1 µM and inactive = higher.

Columns and labels:
Assay in all cases: NCI anticancer screen, dose series, 48 h
[1] = test system: 786-0
[2] = test system: CAKI-1
[3] = test system: HCT-15
[4] = test system: HOP-92
[5] = test system: KM12
[6] = test system: Malme-3M
[7] = test system: NCI-H226
[8] = test system: RXF 393
[9] = test system: SK-MEL-2
[10] = test system: SK-MEL-5
[11] = test system: SK-OV-3
[12] = test system: SNB-75
[13] = test system: SR
[14] = test system: UACC-62
[15] = test system: HCC 2998
[16] = test system: SK-MEL-28
[17] = test system: MDA-MB-435
[18] = test system: NCI/ADR-RES
[19] = test system: DU-145

Row | SMILES | GI50 [1] | GI50 [2] | GI50 [3] [µM] | GI50 [4] | GI50 [5] | GI50 [6] | GI50 [7] | GI50 [8] | GI50 [9] | GI50 [10] | GI50 [11] | GI50 [12] | GI50 [13] | GI50 [14] | GI50 [15] | GI50 [16] | GI50 [17] | GI50 [18] | GI50 [19]
1 | O=c1c2cc(-c3ccccc3)sc2nc2sc(-c3ccccc3)nn12 | > 100 µM (inactive) | > 100 µM (inactive) | > 100 | > 100 µM (inactive) | > 100 µM (inactive) | > 100 µM (inactive) | > 100 µM (inactive) | > 100 µM (inactive) | > 100 µM (inactive) | > 100 µM (inactive) | > 100 µM (inactive) | > 100 µM (inactive) | > 100 µM (inactive) | > 100 µM (inactive) | – | – | – | – | –
2 | Cc1ccc2[nH]c(=O)c(C(C#N)c3ccccc3)nc2c1 (centres undefined) | 41.8 µM (inactive) | 34.6 µM (inactive) | 31.4 | 32.7 µM (inactive) | 32 µM (inactive) | 45.2 µM (inactive) | 30.1 µM (inactive) | 23 µM (inactive) | 20 µM (inactive) | 19 µM (inactive) | 50.7 µM (inactive) | 30.5 µM (inactive) | 71.3 µM (inactive) | 26.5 µM (inactive) | 28.2 µM (inactive) | 60.4 µM (inactive) | – | – | –
3 | Cc1ccccc1N1C(=O)/C(=C/c2ccc(N(CCC#N)CCC#N)cc2)N=C1c1cc([N+](=O)[O-])ccc1Cl | 84.5 µM (inactive) | > 100 µM (inactive) | > 100 | – | > 100 µM (inactive) | > 100 µM (inactive) | > 100 µM (inactive) | – | > 100 µM (inactive) | 38.5 µM (inactive) | > 100 µM (inactive) | > 100 µM (inactive) | 7.19 µM (inactive) | 22.5 µM (inactive) | > 100 µM (inactive) | > 100 µM (inactive) | – | – | –
4 | Cc1ccc(NC(=O)CC(=O)n2nc(C)c(/N=N/c3ccccc3C(=O)O)c2C)cc1 | > 100 µM (inactive) | > 100 µM (inactive) | > 100 | – | > 100 µM (inactive) | > 100 µM (inactive) | – | – | > 100 µM (inactive) | > 100 µM (inactive) | > 100 µM (inactive) | 89.1 µM (inactive) | – | > 100 µM (inactive) | > 100 µM (inactive) | > 100 µM (inactive) | – | – | –
5 | CC(=O)c1cccc(NC(=O)C(=O)C(C2OC(=O)c3ccccc32)[N+](=O)[O-])c1 (centres undefined) | > 100 µM (inactive) | > 100 µM (inactive) | > 100 | > 100 µM (inactive) | > 100 µM (inactive) | > 100 µM (inactive) | > 100 µM (inactive) | > 100 µM (inactive) | > 100 µM (inactive) | > 100 µM (inactive) | > 100 µM (inactive) | > 100 µM (inactive) | > 100 µM (inactive) | > 100 µM (inactive) | > 100 µM (inactive) | > 100 µM (inactive) | – | – | –
6 | COc1cc(/C=N/N=C(\N)NO)c([N+](=O)[O-])cc1OC | 29.9 µM (inactive) | 20.4 µM (inactive) | 22.7 | 29.2 µM (inactive) | 44.4 µM (inactive) | 59.3 µM (inactive) | 14.7 µM (inactive) | 33.7 µM (inactive) | 26.5 µM (inactive) | 18 µM (inactive) | 23.3 µM (inactive) | 27.5 µM (inactive) | 29.2 µM (inactive) | 20.6 µM (inactive) | 24.2 µM (inactive) | > 100 µM (inactive) | – | – | –
7 | Cc1[nH]c2ccccc2c1C1Cc2ccccc2N1C(=O)/C=C/C(=O)O (centres undefined) | > 100 µM (inactive) | > 100 µM (inactive) | 16.1 | – | > 100 µM (inactive) | > 100 µM (inactive) | > 100 µM (inactive) | > 100 µM (inactive) | > 100 µM (inactive) | > 100 µM (inactive) | > 100 µM (inactive) | > 100 µM (inactive) | > 100 µM (inactive) | > 100 µM (inactive) | > 100 µM (inactive) | – | – | – | –
8 | COC(=O)C1(C(=O)OC)CC2c3c(c4ccccc4n3C)CC(C1=O)N2Cc1ccccc1 (centres undefined) | > 100 µM (inactive) | > 100 µM (inactive) | > 100 | > 100 µM (inactive) | > 100 µM (inactive) | > 100 µM (inactive) | > 100 µM (inactive) | 29.8 µM (inactive) | > 100 µM (inactive) | > 100 µM (inactive) | > 100 µM (inactive) | 15.4 µM (inactive) | – | 89.9 µM (inactive) | > 100 µM (inactive) | 80 µM (inactive) | – | – | –
9 | O=C(CSc1nnc(-c2ccc(/N=C\c3ccc(Cl)cc3)cc2)o1)Nc1cccc(Cl)c1 | > 100 µM (inactive) | – | > 100 | – | > 100 µM (inactive) | > 100 µM (inactive) | > 100 µM (inactive) | 80.5 µM (inactive) | > 100 µM (inactive) | > 100 µM (inactive) | > 100 µM (inactive) | > 100 µM (inactive) | > 100 µM (inactive) | > 100 µM (inactive) | – | > 100 µM (inactive) | – | – | –
10 | S=C(Nc1ccccc1)N(/N=C/C=C/c1ccccc1)c1nnc(-c2ccccc2)c(-c2ccccc2)n1 | > 100 µM (inactive) | 50.7 µM (inactive) | 82.2 | 18.7 µM (inactive) | 82.4 µM (inactive) | 57.7 µM (inactive) | 24.3 µM (inactive) | 50.9 µM (inactive) | 56.8 µM (inactive) | 30.8 µM (inactive) | > 100 µM (inactive) | > 100 µM (inactive) | – | 52.4 µM (inactive) | 76.7 µM (inactive) | 54.6 µM (inactive) | – | – | –
11 | CCN(CC)CCCC(C)NC(=O)c1ccc2c(c1)C(=O)c1ccccc1C2=O (centres undefined) | 18.6 µM (inactive) | 25.9 µM (inactive) | 17.9 | 24.4 µM (inactive) | 15.4 µM (inactive) | 12.9 µM (inactive) | 22.3 µM (inactive) | 19.7 µM (inactive) | 19.5 µM (inactive) | 14.5 µM (inactive) | 40.1 µM (inactive) | 48.2 µM (inactive) | 20.7 µM (inactive) | 20.5 µM (inactive) | 18.1 µM (inactive) | 17.9 µM (inactive) | – | – | –
12 | N#Cc1c(N)oc2cc3c(C#N)c(N)oc3cc12 | > 100 µM (inactive) | > 100 µM (inactive) | > 100 | > 100 µM (inactive) | > 100 µM (inactive) | > 100 µM (inactive) | – | > 100 µM (inactive) | > 100 µM (inactive) | > 100 µM (inactive) | > 100 µM (inactive) | 83.6 µM (inactive) | – | > 100 µM (inactive) | > 100 µM (inactive) | > 100 µM (inactive) | – | – | –
13 | CN(Cc1cnc2c(n1)C(N)=NN(N)N2)c1ccc(C(=O)NC(CCP(=O)(O)O)C(=O)O)cc1 (centres undefined) | 1.86 µM (inactive) | > 52.8 µM (inactive) | 6.14 | > 100 µM (inactive) | 5.14 µM (inactive) | > 23.8 µM (inactive) | > 35.1 µM (inactive) | 6.22 µM (inactive) | > 100 µM (inactive) | 5.35 µM (inactive) | > 100 µM (inactive) | 7.01 µM (inactive) | – | 1.78 µM (inactive) | 15.3 µM (inactive) | > 85.7 µM (inactive) | 3.95 µM (inactive) | 8.02 µM (inactive) | –
14 | O=C1C2C3C=C4c5ccccc5N(c5ccccc5)C4(C2C(=O)N1c1ccc([N+](=O)[O-])cc1)[C@H]1C(=O)N(c2ccc([N+](=O)[O-])cc2)C(=O)[C@@H]31 (some centres undefined) | > 100 µM (inactive) | > 100 µM (inactive) | > 100 | > 100 µM (inactive) | > 100 µM (inactive) | > 100 µM (inactive) | > 100 µM (inactive) | > 100 µM (inactive) | > 100 µM (inactive) | > 100 µM (inactive) | > 100 µM (inactive) | 11.1 µM (inactive) | – | > 100 µM (inactive) | > 100 µM (inactive) | > 100 µM (inactive) | – | – | –
15 | CCCCCCCCC(C)CCCCCCCCC(=O)OCC(COP(=O)([O-])OCC[N+](C)(C)C)OC(=O)CCCCCCCCC(C)CCCCCCCC (centres undefined) | > 100 µM (inactive) | > 100 µM (inactive) | > 100 | > 100 µM (inactive) | > 100 µM (inactive) | > 100 µM (inactive) | > 100 µM (inactive) | > 100 µM (inactive) | > 100 µM (inactive) | > 100 µM (inactive) | > 100 µM (inactive) | > 100 µM (inactive) | > 100 µM (inactive) | > 100 µM (inactive) | > 100 µM (inactive) | > 100 µM (inactive) | – | – | –
16 | OC1c2ccccc2C2C(O)c3ccccc3C12 (centres undefined) | > 100 µM (inactive) | > 100 µM (inactive) | > 100 | > 100 µM (inactive) | > 100 µM (inactive) | > 100 µM (inactive) | – | > 100 µM (inactive) | > 100 µM (inactive) | > 100 µM (inactive) | > 100 µM (inactive) | 89.5 µM (inactive) | – | > 100 µM (inactive) | > 100 µM (inactive) | > 100 µM (inactive) | – | – | –
17 | O=C(O)C(=O)/C=C\c1ccc(Cl)cc1 | > 100 µM (inactive) | > 100 µM (inactive) | > 100 | 80.9 µM (inactive) | > 100 µM (inactive) | > 100 µM (inactive) | > 100 µM (inactive) | > 100 µM (inactive) | > 100 µM (inactive) | > 100 µM (inactive) | > 100 µM (inactive) | > 100 µM (inactive) | 51.6 µM (inactive) | > 100 µM (inactive) | > 100 µM (inactive) | > 100 µM (inactive) | – | – | –
18 | Cc1ccc(O)cc1.Cc1cccc(O)c1.Cc1ccccc1O [CRESOL] | > 100 µM (inactive) | > 100 µM (inactive) | > 100 | – | > 100 µM (inactive) | 8.61 µM (inactive) | 85.9 µM (inactive) | > 100 µM (inactive) | > 100 µM (inactive) | > 100 µM (inactive) | > 100 µM (inactive) | – | – | 88.3 µM (inactive) | > 100 µM (inactive) | > 100 µM (inactive) | > 100 µM (inactive) | > 100 µM (inactive) | > 100 µM (inactive)
